Experimental data from ChEMBL document CHEMBL5726928, “Aryl, heteroaryl, and heterocyclic compounds for treatment of medical disorders” (2019).
pIC50: −log10 of the molar value.

Target: Complement factor D (Homo sapiens, UniProt P00746)
Test: Human Factor D Assay: Human Factor D (purified from human serum, Complement Technology, Inc.) at 80 nM final concentration was incubated with test compound at various concentrations for 5 minutes at room temperature in 50 mM Tris, 1M NaCl, pH 7.5. A synthetic substrate Z-L-Lys-SBzl and DTNB (Ellman's reagent) are added to final concentrations of 100 μM each. […] IC50 values are calculated by nonlinear regression of complement Factor D reaction rates as a function of test compound concentration.

Sequence of Complement factor D (P00746 whole entry): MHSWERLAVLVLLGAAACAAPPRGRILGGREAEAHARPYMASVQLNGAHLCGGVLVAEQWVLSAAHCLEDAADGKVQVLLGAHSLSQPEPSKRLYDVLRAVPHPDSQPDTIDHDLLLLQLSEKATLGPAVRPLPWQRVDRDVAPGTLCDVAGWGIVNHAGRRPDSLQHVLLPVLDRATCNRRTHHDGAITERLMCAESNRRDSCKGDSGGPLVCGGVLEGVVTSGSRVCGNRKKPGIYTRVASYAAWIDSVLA

Cc1cc2ncc(-c3ccc4c(c3)c(C(N)=O)nn4CC(=O)N3C[C@H](F)C[C@H]3C(=O)Nc3cccc(OC(F)(F)F)c3F)cn2n1
pIC50: > 6.00

CC(=O)c1nn(CC(=O)N2C[C@H](F)C[C@H]2C(=O)Nc2ccn(CCC(F)(F)F)n2)c2ccc(-c3cnc(C)nc3)cc12
pIC50: > 6.00

CC(=O)c1nn(CC(=O)N2[C@H](C(=O)NCc3cccc(Cl)c3F)C[C@@]3(C)C[C@@H]23)c2ccc(-c3cnc(C)nc3)cc12
pIC50: > 6.00

CC(=O)c1nn(CC(=O)N2C[C@H](F)C[C@H]2C(=O)NC[C@@H]2CC2(Cl)Cl)c2ccc(-c3cnc(C)nc3)cc12
pIC50: > 6.00

CC(=O)c1nn(CC(=O)N2C[C@H](F)C[C@H]2C(=O)Nc2cccc(OC(F)(F)F)c2C#N)c2ccc(-c3cnc(C)nc3)cc12
pIC50: > 6.00

CC(=O)c1nn(CC(=O)N2C[C@H](F)C[C@H]2C(=O)N[C@@H]2C[C@H]2c2ccccc2Cl)c2ccc(-c3cnc(C)nc3)cc12
pIC50: > 6.00

CC(=O)c1nn(CC(=O)N2C[C@H](F)C[C@H]2C(=O)Nc2cccnn2)c2ccc(-c3cnc4cc(C)nn4c3)cc12
pIC50: > 6.00

CC(=O)c1nn(CC(=O)N2C[C@H](F)C[C@H]2C(=O)NC[C@H]2CC2(Cl)Cl)c2ccc(-c3cnc(C)nc3)cc12
pIC50: > 6.00

CC(=O)c1nn(CC(=O)N2[C@@H]3C[C@@H]3C[C@H]2C(=O)NC/C(F)=C(/C)c2ccccc2)c2ccc(-c3cnc(C)nc3)cc12
pIC50: > 6.00

CC(=O)c1nn(CC(=O)N2C[C@H](F)C[C@H]2C(=O)Nc2cccc(Br)n2)c2ccc(-c3cnc([S+](C)[O-])nc3)cc12 (stereo partly specified)
pIC50: > 6.00

CC(=O)c1nn(CC(=O)N2C[C@H](F)C[C@H]2C(=O)Nc2nn(CC(F)(F)F)cc2C)c2ccc(-c3cnc(C)nc3)cc12
pIC50: > 6.00

CC(=O)c1nn(CC(=O)N2C[C@H](F)C[C@H]2C(=O)N[C@H](C)[C@H]2CC2(Cl)Cl)c2ccc(-c3cnc(C)nc3)cc12
pIC50: > 6.00

CC(=O)c1nn(CC(=O)N2C[C@H](F)C[C@H]2C(=O)Nc2nc(Br)ccc2Cl)c2ccc(-c3cnc(C)nc3)cc12
pIC50: > 6.00

CC(=O)c1nn(CC(=O)N2[C@H](C(=O)NCC3CC3(Cl)Cl)C[C@@]3(C)C[C@@H]23)c2ccc(-c3cnc(C)nc3)cc12 (stereo partly specified)
pIC50: > 6.00

CC(=O)c1nn(CC(=O)N2[C@@H]3C[C@@H]3C[C@H]2C(=O)Nc2cccc(Br)n2)c2ccc(-c3cnc(NC(C)C)nc3)cc12
pIC50: > 6.00

CC(=O)c1nn(CC(=O)N2C[C@H](F)C[C@H]2C(=O)Nc2cccc(C)n2)c2ccc(-c3cnc(C)nc3)cc12
pIC50: > 6.00

CC(=O)c1nn(CC(=O)N2C[C@H](F)C[C@H]2C(=O)N[C@H]2C[C@@H]2c2ccccc2Cl)c2ccc(-c3cnc(C)nc3)cc12
pIC50: > 6.00

CC(=O)c1nn(CC(=O)N2C[C@H](F)C[C@H]2C(=O)Nc2cccc(OC(F)(F)F)n2)c2ccc(-c3cnc(N)nc3)cc12
pIC50: > 6.00

COc1ccc(Br)nc1NC(=O)[C@@H]1C[C@@H](F)CN1C(=O)Cn1nc(C(C)=O)c2cc(-c3cnc(C)nc3)ccc21
pIC50: > 6.00

CC(=O)c1nn(CC(=O)N2[C@H](C(=O)NCc3cccc(Cl)c3)C[C@@]3(C)C[C@@H]23)c2ccc(-c3cnc(C)nc3)cc12
pIC50: > 6.00

CC(=O)c1nn(CC(=O)N2[C@@H]3C[C@@H]3C[C@H]2C(=O)Nc2nc(Br)ccc2C)c2ccc(-c3cnc(C)nc3)cc12
pIC50: > 6.00

COCCNc1ncc(-c2ccc3c(c2)c(C(C)=O)cn3CC(=O)N2C[C@H](F)C[C@H]2C(=O)Nc2cccc(Br)n2)cn1
pIC50: > 6.00

CC(=O)c1nn(CC(=O)N2C[C@@](F)(CO)C[C@H]2C(=O)Nc2cccc(Br)n2)c2ccc(-c3cnc(C)nc3)cc12
pIC50: > 6.00

CC(=O)c1cn(CC(=O)N2C[C@H](F)C[C@H]2C(=O)Nc2cccc(Br)n2)c2ccc(-c3cnc4ccnn4c3)cc12
pIC50: > 6.00

CC(=O)c1nn(CC(=O)N2C[C@H](F)C[C@H]2C(=O)Nc2cccc(Br)n2)c2ccc(-c3nc4ccccc4[nH]3)cc12
pIC50: > 6.00

CC(=O)c1nn(CC(=O)N2C[C@H](F)C[C@H]2C(=O)Nc2cccc(Br)n2)c2ccc(-c3cnnc(C)c3)cc12
pIC50: > 6.00

CC(=O)c1nn(CC(=O)N2C[C@H](F)C[C@H]2C(=O)Nc2cccc(Br)c2)c2ccc(-c3cnc(C)nc3)cc12
pIC50: > 6.00

CC(=O)c1nn(CC(=O)N2C[C@H](F)C[C@H]2C(=O)Nc2ccc(F)c(Br)c2F)c2ccc(-c3cnc(C)nc3)cc12
pIC50: > 6.00

CCn1ccc(NC(=O)[C@@H]2C[C@@H](F)CN2C(=O)Cn2nc(C(C)=O)c3cc(-c4cnc(C)nc4)ccc32)n1
pIC50: > 6.00

COCCNc1ncc(-c2ccc3c(c2)c(C(C)=O)cn3CC(=O)N2[C@@H]3C[C@@H]3C[C@H]2C(=O)Nc2cccc(Br)n2)cn1
pIC50: > 6.00

CCOC(=O)Cc1ncc(-c2ccc3c(c2)c(C(C)=O)nn3CC(=O)N2C[C@H](F)C[C@H]2C(=O)Nc2nc(Br)ccc2C)cn1
pIC50: > 6.00
